Patent US11839212B2, “Synergistic pesticidal compositions and methods for delivery of insecticidal active ingredients” (0903608 B.C. Ltd., priority 2018, dated 2023)
Like-named read-outs stand apart in the source and are kept apart here. Values belong to the compound of their own block, whether it stands above or below them.

What was measured:
Experiment in all cases: Synergistic Growth Inhibition Assay (MIC and FIC index, 96-well, resazurin)
Type in all cases: cell-based
Botrytis cinerea = conditions: 48 hours incubation; for MIC: Botrytis cinerea, 48 h
Description: (§1) In some embodiments, the synergistic action between the pesticidal active ingredient, and the at least one C6-C10 (or alternatively C11 or C12) saturated or unsaturated aliphatic acid components of the pesticidal compositions according to embodiments of the present disclosure was tested using a Synergistic Growth Inhibition Assay, which is derived from and related to a checkerboard assay as is known in the art for testing of combinations of antimicrobial agents. In the Synergistic Growth Inhibition Assay used in accordance with some embodiments of the present disclosure, multiple dilutions of combinations of pesticidal active ingredient and at least one C6-C10 saturated or unsaturated aliphatic acid agents are tested in individual cells for inhibitory activity against a target pest or pathogenic organism. In one such embodiment, the combinations of pesticidal active ingredient and C6-C10 (or alternatively C11 or C12) saturated or unsaturated aliphatic acid agents may preferably be tested in decreasing concentrations. In a further such embodiment, the combinations of pesticidal active ingredient and C6-C10 (or alternatively C11 or C12) saturated or unsaturated aliphatic acid agents may be tested in increasing concentrations. These multiple combinations of the pesticidal active ingredient and at least one C6-C10 (or alternatively C11 or C12) saturated or unsaturated aliphatic acid agents may be prepared in 96-well microtiter plates. In one such embodiment, the Synergistic Growth Inhibition Assay then comprises rows which each contain progressively decreasing concentrations of the pesticidal active ingredient and one or more C6-C10 (or alternatively C11 or C12) saturated or unsaturated aliphatic acid agents to test for the MIC of the agents in combination at which growth of the target pest or pathogen is inhibited. Thus, each well of the microtiter plate is a unique combination of the two agents, at which inhibitory efficacy of the combination against the target pest or pathogen can be determined.
(§2) In one embodiment according to the present disclosure, for each row of microtiter cells in the Synergistic Growth Inhibition Assay, the FIC index is calculated from the lowest concentration of the pesticidal active ingredient and one or more C6-C10 saturated or unsaturated aliphatic acid agents necessary to inhibit growth of a target pest or pathogen. The FIC of each component is derived by dividing the concentration of the agent present in that well of the microtiter plate by the minimal inhibitory concentration (MIC) needed of that agent alone to inhibit growth of the target pest or pathogen. The FIC index is then the sum of these values for both agents in that well of the microtiter plate. […] Fractional inhibitory concentration indices may then used as measure of synergy. […] When the FIC index is equal to 1, the combination is additive.
(§3) Then, serial dilutions of these initial compositions in successive wells in the row of the microtiter plate were used to assay the pesticidal composition under the same conditions to determine the concentration of the composition combining the two agents corresponding to the microtiter well in which growth inhibition of the target pest or organism ceases.
(§4) Similarly to as described above, Resazurin was used as an indicator of growth or inhibition of growth of Botrytis cinerea in the exemplary Synergistic Growth Inhibition Assay. In addition to the color change of the resazurin, an optical or visual examination of the microtiter well may also be made to additionally determine the presence of growth or inhibition of growth of the Botrytis cinerea.

Fusarium oxysporum = conditions: Fusarium oxysporum, Compound B alone
Description: as §1, §2, §3
Resazurin dye (also known as Alamar blue dye) was used as an indicator to determine the presence of growth or inhibition of growth of Fusarium oxysporum in the wells of the 96 well microtiter plates used in the exemplary Synergistic Growth Inhibition Assay. In addition to the color change of the resazurin dye in the presence of growth of the Fusarium oxysporum, an optical or visual examination of the microtiter well may also be made to additionally determine the presence of growth or inhibition of growth of the Fusarium oxysporum.

Sclerotinia sclerotiorum = conditions: Sclerotinia sclerotiorum, […]
Description: as §1, §2, §3
as §4, with “Sclerotinia sclerotiorum” for “Botrytis cinerea”, “Sclerotinia sclerotiorum.” for “Botrytis cinerea.”

Alternaria solani = conditions: 7 days incubation; for MIC: Alternaria solani
Description: as §1, §2, §3
A culture of the representative fungal pathogen, namely Fusarium oxysporum, Botrytis cinerea, or Sclerotinia sclerotiorum, for example, is grown to exponential phase in potato dextrose broth (PDB).

[1] = Table 43, Compound B alone, read-out: MIC (B)
[2] = Table 44, Compound B alone, read-out: MIC (B)
[3] = Table 45, Compound B alone, read-out: MIC (B)
[4] = Table 56, Compound B alone, read-out: MIC (B)
[5] = 48 h, Table 28, 48 hours incubation, read-out: MIC (B)
[6] = 48 h, Table 30, 48 hours incubation, read-out: MIC (B)
[7] = 48 h, Table 32, 48 hours incubation, read-out: MIC (B)
[8] = Compound B alone, 7 days incubation, read-out: MIC (B)
[9] = Table 33, Compound B alone, 7 days incubation, read-out: MIC (B)
[10] = Table 41, Compound B alone, 7 days incubation, read-out: MIC (B)
[11] = Compound B alone, read-out: MIC (B)
[12] = Table 60, Compound B alone, read-out: MIC (B)
[13] = 48 h, Table 31, 48 hours incubation, read-out: MIC (B)
[14] = Table 51, Compound B alone, read-out: MIC (B)
[15] = Table 59, Compound B alone, read-out: MIC (B)

Structure (SMILES): CCCC(O)CC(=O)O (stereo not shown) [3-Hydroxyhexanoic acid, 3-hydroxyhexanoic acid]
- MIC (Botrytis cinerea; [14]): 2500 µg/mL
- MIC (Botrytis cinerea; [4]): 5000 µg/mL
- MIC (Botrytis cinerea; [15]): 2500 µg/mL
- MIC (Fusarium oxysporum; 48 h, Table 15B, incubation 48 hours, read-out: MIC (B)): 2500 µg/mL
- MIC (Sclerotinia sclerotiorum; Table 16, Compound B alone, incubation 7 days, read-out: MIC (B)): 5000 µg/mL
- MIC (Sclerotinia sclerotiorum; Table 20B, Compound B alone, incubation 7 days, read-out: MIC (B)): 2500 µg/mL
- MIC (Alternaria solani; [11]): 2500 µg/mL

Structure (SMILES): CCCCC(CC)C(=O)O (stereo not shown) [2-Ethylhexanoic acid]
- MIC (Botrytis cinerea; [14]): 156 µg/mL
- MIC (Botrytis cinerea; [15]): 156 µg/mL
- MIC (Sclerotinia sclerotiorum; [8]): 156 µg/mL
- MIC (Alternaria solani; [11]): 156 µg/mL

Structure (SMILES): CC(C)CC(C)c1sccc1NC(=O)c1cn(C)nc1C(F)(F)F (stereo not shown) [Penthiopyrad, reference compound]
- MIC (Botrytis cinerea; Table 56, Compound A alone, read-out: MIC (A)): 250 µg/mL
- MIC (Sclerotinia sclerotiorum; Compound A alone, 7 days incubation, read-out: MIC (A)): 500 µg/mL
- MIC (Alternaria solani; Compound A alone, read-out: MIC (A)): 500 µg/mL

Structure (SMILES): CCC(O)C(=O)O (stereo not shown) [2-Hydroxybutyric acid]
- MIC (Botrytis cinerea; [14]): 5000 µg/mL
- MIC (Botrytis cinerea; [4]): 2500 µg/mL
- MIC (Botrytis cinerea; Table 57, Compound B alone, read-out: MIC (B)): 2500 µg/mL
- MIC (Botrytis cinerea; [15]): 2500 µg/mL
- MIC (Sclerotinia sclerotiorum; [8]): 5000 µg/mL
- MIC (Alternaria solani; [11]): 2500 µg/mL
- MIC (B) (Alternaria solani; Compound B alone): 2.5 mg/mL

Structure (SMILES): CCCCCCC(O)C(=O)O (stereo not shown) [2-Hydroxyoctanoic acid]
- MIC (Botrytis cinerea; [14]): 625 µg/mL
- MIC (Sclerotinia sclerotiorum; [8]): 625 µg/mL
- MIC (Alternaria solani; [11]): 625 µg/mL

Structure (SMILES): CO/C=C(/C(=O)OC)c1ccccc1COc1cccc(C(F)(F)F)n1 [Picoxystrobin, reference compound]
- MIC (A) (Botrytis cinerea; Table 51, Compound A alone): 0.25 mg/mL
- MIC (A) (Botrytis cinerea; Table 52, Compound A alone): 0.25 mg/mL
- MIC (A) (Alternaria solani; Compound A alone): 0.5 mg/mL
- MIC (A) (Alternaria solani; Table 60, Compound A alone): 0.5 mg/mL

Continued, values first:

- MIC (Botrytis cinerea; [1]): 78.1 µg/mL
- MIC (Botrytis cinerea; [2]): 39.1 µg/mL
- MIC (Botrytis cinerea; [3]): 39.1 µg/mL
- MIC (Botrytis cinerea; Table 46, Compound B alone, read-out: MIC (B)): 19.5 µg/mL
- MIC (Botrytis cinerea; Table 47, Compound B alone, read-out: MIC (B)): 78.1 µg/mL
- MIC (Botrytis cinerea; Table 49, Compound B alone, read-out: MIC (B)): 156 µg/mL
- MIC (Botrytis cinerea; [4]): 156 µg/mL
- MIC (Fusarium oxysporum; [5]): 156 µg/mL
- MIC (Fusarium oxysporum; [6]): 312 µg/mL
- MIC (Fusarium oxysporum; [7]): 312 µg/mL
- MIC (Sclerotinia sclerotiorum; [8]): 78.1 µg/mL
- MIC (Sclerotinia sclerotiorum; [9]): 19.5 µg/mL
- MIC (Sclerotinia sclerotiorum; Table 36, Compound B alone, 7 days incubation, read-out: MIC (B)): 39.1 µg/mL
- MIC (Sclerotinia sclerotiorum; Table 37, Compound B alone, 7 days incubation, read-out: MIC (B)): 78.1 µg/mL
- MIC (Sclerotinia sclerotiorum; Table 38, Compound B alone, 7 days incubation, read-out: MIC (B)): 39.1 µg/mL
- MIC (Sclerotinia sclerotiorum; Table 39, Compound B alone, 7 days incubation, read-out: MIC (B)): 19.5 µg/mL
- MIC (Sclerotinia sclerotiorum; Table 40, Compound B alone, 7 days incubation, read-out: MIC (B)): 19.5 µg/mL
- MIC (Sclerotinia sclerotiorum; [10]): 39.1 µg/mL
- MIC (Alternaria solani; [11]): 156 µg/mL
- MIC (Alternaria solani; [12]): 78.1 µg/mL
Structure (SMILES): CCCCCC/C=C/C(=O)O [Trans-2-nonenoic acid]

- MIC (Fusarium oxysporum; 24 h, Table 3, 24 hour incubation, read-out: MIC(B)): 147 µg/mL
- MIC (Fusarium oxysporum; 24 h, Table 4, 24 hour incubation, read-out: MIC (B)): 147 µg/mL
- MIC (Fusarium oxysporum; [6]): 156 µg/mL
- MIC (Fusarium oxysporum; [13]): 156 µg/mL
- MIC (Fusarium oxysporum; [7]): 156 µg/mL
- MIC (Alternaria solani; [12]): 156 µg/mL
Structure (SMILES): CCCCC=CCC(=O)O [3-Octenoic acid, 3-octenoic acid]

- MIC (Botrytis cinerea; [14]): 312 µg/mL
- MIC (Botrytis cinerea; [15]): 312 µg/mL
- MIC (Sclerotinia sclerotiorum; [8]): 625 µg/mL
- MIC (Alternaria solani; [11]): 312 µg/mL
Structure (SMILES): CC(C)CC(=O)O [3-Methylbutyric acid]

- MIC (Botrytis cinerea; [1]): 156 µg/mL
- MIC (Botrytis cinerea; [2]): 156 µg/mL
- MIC (Botrytis cinerea; [3]): 312 µg/mL
- MIC (Fusarium oxysporum; 24 h, Table 1, 24 hour incubation, read-out: MIC(B)): 312 µg/mL
- MIC (Fusarium oxysporum; 24 h, Table 2, 24 hour incubation, read-out: MIC (B)): 312 µg/mL
- MIC (Fusarium oxysporum; 48 h, Table 27, 48 hours incubation, read-out: MIC (B)): 312 µg/mL
- MIC (Fusarium oxysporum; [5]): 312 µg/mL
- MIC (Fusarium oxysporum; [6]): 312 µg/mL
- MIC (Fusarium oxysporum; [13]): 156 µg/mL
- MIC (Sclerotinia sclerotiorum; [8]): 312 µg/mL
- MIC (Sclerotinia sclerotiorum; [9]): 156 µg/mL
- MIC (Sclerotinia sclerotiorum; Table 34, Compound B alone, 7 days incubation, read-out: MIC (B)): 156 µg/mL
- MIC (Sclerotinia sclerotiorum; Table 35, Compound B alone, 7 days incubation, read-out: MIC (B)): 156 µg/mL
- MIC (Sclerotinia sclerotiorum; [10]): 156 µg/mL
- MIC (Alternaria solani; [12]): 312 µg/mL
Structure (SMILES): CC/C=C/CC(=O)O [Trans-3-hexenoic acid, trans-3-hexenoic acid]
